Source: PubChem BioAssay (NCI)
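Method: 48-hour compound exposure of cells in 96-well plates, five concentrations, linear interpolation of endpoints. TGI: total growth inhibition.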

Key:
Assay in all cases: growth of human tumour cells (NCI), 48 h
[1] = test system: MDA-MB-435
[2] = test system: HCT-15 colon
[3] = test system: NCI-H23 lung
[4] = test system: DU-145 prostate
[5] = test system: A498 renal
[6] = test system: NCI-H226 lung
[7] = test system: HL-60(TB) leukemia
[8] = test system: SF-268 CNS
[9] = test system: NCI-H460 lung
[10] = test system: SK-MEL-28 melanoma
[11] = test system: SK-MEL-2 melanoma
[12] = test system: HT29 colon
[13] = test system: BT-549 breast
[14] = test system: T-47D breast
[15] = test system: SN12C renal
[16] = test system: TK-10 renal
[17] = test system: UO-31 renal
[18] = test system: COLO 205 colon
[19] = test system: MDA-N
[20] = test system: UACC-62 melanoma
[21] = test system: NCI/ADR-RES ovarian
[22] = test system: RXF 393 renal
[23] = test system: UACC-257 melanoma
[24] = test system: HS 578T breast
[25] = test system: M14 melanoma
[26] = test system: SNB-75 CNS
[27] = test system: OVCAR-5 ovarian
[28] = test system: A549 NSCLC
[29] = test system: LOX IMVI melanoma
[30] = test system: ACHN renal
[31] = test system: HCC-2998 colon
[32] = test system: SF-539 CNS
[33] = test system: SR leukemia
[34] = test system: SW-620 colon
[35] = test system: HOP-92 NSCLC
[36] = test system: HCT-116 colon
[37] = test system: RPMI-8226 leukemia
[38] = test system: U251 CNS
[39] = test system: MCF7 breast
[40] = test system: KM12 colon
[41] = test system: 786-0 renal
[42] = test system: K-562 leukemia
[43] = test system: MDA-MB-231 breast
[44] = test system: SK-OV-3 ovarian
[45] = test system: OVCAR-4 ovarian
[46] = test system: SNB-19 CNS
[47] = test system: MALME-3M melanoma
[48] = test system: SK-MEL-5 melanoma
[49] = test system: OVCAR-3 ovarian
[50] = test system: HOP-62 NSCLC
[51] = test system: PC-3 prostate
[52] = test system: MOLT-4 leukemia
[53] = test system: CAKI-1 renal
[54] = test system: CCRF-CEM leukemia
[55] = test system: IGROV1 ovarian
[56] = test system: SF-295 CNS
[57] = test system: OVCAR-8 ovarian
[58] = test system: EKVX NSCLC

COc1ccc(-c2cn3c(nc4ccccc43)c(/C=C/c3cccs3)n2)cc1 was tested, and the TGI [1] was 36.5 µM, the TGI [2] was > 100 µM and the TGI [3] was > 100 µM. For the same compound, the TGI [4] was > 100 µM, the TGI [5] was > 100 µM and the TGI [6] was > 100 µM. For the same compound, the TGI [7] was 89.7 µM, the TGI [8] was > 100 µM and the TGI [9] was > 100 µM. For the same compound, the TGI [10] was > 100 µM, the TGI [11] was 45.6 µM and the TGI [12] was > 100 µM. The TGI [13] was > 100 µM, the TGI [14] was > 100 µM and the TGI [15] was > 100 µM. The TGI [16] was > 100 µM, the TGI [17] was > 100 µM and the TGI [18] was > 100 µM. For the same compound, the TGI [19] was 25.1 µM, the TGI [20] was > 100 µM and the TGI [21] was 51.7 µM. For the same compound, the TGI [22] was > 100 µM, the TGI [23] was > 100 µM and the TGI [24] was > 100 µM. For the same compound, the TGI [25] was > 100 µM, the TGI [26] was > 100 µM and the TGI [27] was > 100 µM. The TGI [28] was > 100 µM, the TGI [29] was > 100 µM and the TGI [30] was > 100 µM. For the same compound, the TGI [31] was > 100 µM, the TGI [32] was > 100 µM and the TGI [33] was 15.4 µM. For the same compound, the TGI [34] was > 100 µM, the TGI [35] was > 100 µM and the TGI [36] was > 100 µM. The TGI [37] was 44.1 µM, the TGI [38] was > 100 µM and the TGI [39] was > 100 µM. The TGI [40] was > 100 µM, the TGI [41] was > 100 µM and the TGI [42] was > 100 µM. The TGI [43] was > 100 µM, the TGI [44] was > 100 µM and the TGI [45] was > 100 µM. For the same compound, the TGI [46] was > 100 µM, the TGI [47] was > 100 µM and the TGI [48] was > 100 µM. The TGI [49] was > 100 µM and the TGI [50] was > 100 µM.
In the case of CCCC(=O)N(C(=O)CCC)C1=C(Cl)C(=O)c2ccccc2C1=O, the TGI [1] is reported as 21.4 µM, the TGI [2] is reported as 14.2 µM and the TGI [3] is reported as 15.8 µM. For the same compound, the TGI [4] was 45.1 µM, the TGI [5] was 37.6 µM and the TGI [6] was 23.8 µM. For the same compound, the TGI [51] was 40 µM, the TGI [52] was 10.7 µM and the TGI [8] was > 45.2 µM. For the same compound, the TGI [9] was 29.3 µM, the TGI [10] was 13.6 µM and the TGI [53] was 5.79 µM. The TGI [11] was 24 µM, the TGI [12] was 31.2 µM and the TGI [54] was > 26.7 µM. For the same compound, the TGI [13] was 10.3 µM, the TGI [14] was > 100 µM and the TGI [15] was 52.5 µM. It also gave a TGI [55] of 20.9 µM, a TGI [16] of 14.8 µM and a TGI [17] of 4.75 µM. For the same compound, the TGI [18] was > 23.3 µM, the TGI [19] was 28.2 µM and the TGI [20] was 11.1 µM. It also gave a TGI [21] of 61.3 µM, a TGI [22] of 7.1 µM and a TGI [23] of 11.6 µM. The TGI [56] was 33.3 µM, the TGI [57] was 25.3 µM and the TGI [24] was 79.7 µM. For the same compound, the TGI [25] was 25.8 µM, the TGI [58] was > 42.5 µM and the TGI [26] was 15.3 µM. For the same compound, the TGI [27] was 26 µM, the TGI [28] was > 52.8 µM and the TGI [29] was 17.8 µM. For the same compound, the TGI [30] was 2.71 µM, the TGI [31] was 16.4 µM and the TGI [32] was 15.4 µM. For the same compound, the TGI [33] was > 54.1 µM, the TGI [34] was 14.5 µM and the TGI [35] was 45 µM. For the same compound, the TGI [36] was > 33.1 µM, the TGI [38] was 23.5 µM and the TGI [40] was 15.5 µM. For the same compound, the TGI [41] was 30.8 µM, the TGI [42] was 5.01 µM and the TGI [43] was > 67.5 µM. It also gave a TGI [44] of 34.4 µM, a TGI [45] of 82.8 µM and a TGI [46] of 24.4 µM. The TGI [48] was > 23.9 µM, the TGI [49] was 11.8 µM and the TGI [50] was 24.1 µM.
